Data as given in patent US12565515B2, “1,2,4-oxadiazole compounds as inhibitors of CD47 signalling pathways” (AURIGENE ONCOLOGY LIMITED, priority 2018, dated 2026).

system: luciferase expressing Raji cells; assay: Luciferase based phagocytosis assay; type: cell-based; settings: human monocyte-derived macrophages, luminescence, read-out: % normalized phagocytosis (at 10 μM)
Protocol: (§1) DPBS (Gibco), RPMI 1640 WITH HEPES AND L-GLN-500 ML (Lonza), Recombinant Human M-CSF (R& D systems), CD47 Monoclonal Antibody (B6H12), Functional Grade antibody (Ebioscience), Mouse IgG1 kappa Isotype Control, Functional Grade (Ebioscience), Vacutainer (multiple sample luer adapter) (BD), Vacutainer (sodium heparin (NH) 158USP units, Blood collection tubes (BD), Histopaque (density—1.077 gm/ml) (SIGMA 1077), Trypan Blue solution (SIGMA-T8154), Hemacytometer (Bright line-SIGMA Z359629), Scalp vein infusion set (JMS), Cell Dissociation buffer (Gibco), 48-well sterile flat bottom plates (Corning), Luciferase expressing Raji cells (Generated in house by trasfection of luciferase gene in Raji cells) Luminometer, Hygromycin B (Invitrogen), Bright Glo luciferase assay system (Promega), 96 well plate, polystyrene, high band, white flat bottom wells (Sigma CLS3912), APC anti-mouse/human CD11b Antibody (Biolegend), H929 cells, CFSE (Ebioscience), Fetal Bovine Serum (Gibco Cat #: 10437028), Round-Bottom FACs Tubes (BD), Flowcytometer BD FACS Verse, 96 well plates, ultra-low attachment (Corning).
In vitro phagocytosis assay was performed to evaluate the ability of test item to enhance the phagocytic activity of macrophages. Monocytes were isolated from blood of healthy donor and cultured for 6-8 days using 10% RPMI (Roswell Park Memorial Institute) media and recombinant human M-CSF to differentiate into macrophages. Media was changed every alternate day. After differentiation, adherent macrophages were collected by gentle scraping and cultured in 10% RPMI overnight at a density of 0.1 million per well in 48 well tissue culture plate. Simultaneously, luciferase expressing Raji cells were cultured in 10% RPMI media with 100 μg/mL of hygromycin B in tissue culture flask. On the day of phagocytosis, macrophages were serum starved for 2 hours. 0.4 million luciferase expressing Raji cells per well were incubated with anti human CD47 purified B6H12 or Mouse IgG1 K Isotype Control antibody or various concentrations of test item in serum free media for 30 min at 37° C. and added into respective well of the 48 well plate seeded with macrophages. After 2 hours, cells were washed twice with PBS and 100 μL of serum free RPMI was added to each well. Additionally, 50 μL Bright Glow reagent was added to each well followed by mixing of cells and incubated for 5 min in dark. Luminescence reading was taken using plate reader after transferring the content of each well to white plate. Intensity of luminescence indicated the extent of phagocytosis. Each experimental condition was carried out in duplicate.

Compound | activation at 10 µM [%]
N=C(N)NCCC[C@H](NC(=O)N[C@@H](CCC(=O)O)c1nc([C@@H]2CCCN2)no1)C(=O)O [Compound 8] | 20
N=C(N)NCCC[C@H](NC(=O)N1CCCC1C(=O)O)c1nc([C@@H](N)CCC(=O)O)no1 (stereo partly drawn) [Compound 3] | 42
N=C(N)NCCC[C@H](N)c1noc([C@H](CCC(=O)O)NC(=O)N[C@@H](Cc2ccccc2)C(=O)O)n1 [Compound 7, (S)-4-(3-((S)-1-amino-4-guanidinobutyl)-1,2,4-oxadiazol-5-yl)-4-(3-((S)-1-carboxy-2-phenylethyl)ureido)butanoic acid] | 58
N=C(N)NCCC[C@H](NC(=O)N[C@@H](CCC(N)=O)C(=O)O)c1nc([C@@H](N)CCC(N)=O)no1 [Compound 12] | 44
NCCCC[C@H](N)c1noc([C@H](CCC(N)=O)NC(=O)N2CCC[C@H]2C(=O)O)n1 [Compound 1, (((S)-4-amino-1-(3-((S)-1,5-diaminopentyl)-1,2,4-oxadiazol-5-yl)-4-oxobutyl)carbamoyl)-L-proline] | 39
NCc1noc([C@H](Cc2cnc[nH]2)NC(=O)N[C@@H](Cc2ccccc2)C(=O)O)n1 [Compound 14] | 47
NCCCC[C@H](N)c1noc([C@H](CCC(=O)O)NC(=O)N[C@@H](Cc2cnc[nH]2)C(=O)O)n1 [Compound 13] | 49
N=C(N)NCCC[C@H](NC(=O)N[C@@H](CCC(N)=O)c1nc([C@@H](N)CC(N)=O)no1)C(=O)O [Compound 9] | 38

system: H929 cells; assay: FACS based phagocytosis assay; type: cell-based; settings: NCI-H929, human macrophages, CFSE stained H929 cells, flow cytometry, normalized to positive control B6H12
Protocol: as §1
Monocytes were isolated from blood of healthy donor and cultured for 6-8 days using 10% RPMI (Roswell Park Memorial Institute) media and recombinant human M-CSF to differentiate into macrophages. Media was changed every alternate day. Simultaneously, H929 cells were cultured in 10% RPMI media with 50 μg/mL of betamercaptoethanol in tissue culture flask. On the day of phagocytosis adherent macrophages were serum starved for 2 hours in RPMI media. Simultaneously H929 cells were stained with 0.3 μM CFSE stain. After washing, 0.2 million CFSE stained H929 cells were incubated with anti-human CD47 or Mouse IgG1 K Isotype Control antibody or various conc of test item in serum free media for 30 min at 37° C. After 2 hours of serum starvation macrophages were dissociated with cell dissociation buffer and collected by gentle scraping and added at conc of 0.05 million per well into respective wells of the ultra-low attachment 96 well plate seeded with H929 cells. Phagocytosis was allowed for 2 hours. After 2 hours, cells were washed with PBS and stained with 1 μL of anti-human CD11b-APC antibody prepared in 100 μL of PBS for 30 min in 4° C. in dark. Cells were further washed and fixed in 100 μL of fixation buffer until acquired by Flow cytometry. The extent of phagocytosis of H929 cells by human macrophages was measured by acquiring the samples by Flow cytometry. Samples acquired by Flow cytometry were analysed by using FlowJo software. Each experimental condition was carried out in duplicate. Cells positive for FITC (CFSE) and CD11b-APC were considered as phagocytosed macrophages. Raw data of % phagocytosis by macrophages were obtained in the form of excel sheet from FlowJo. % phagocytosis from isotype control (background phagocytosis) was subtracted from % phagocytosis of macrophages treated with compound as well as other controls to get corrected phagocytosis values. Corrected phagocytosis values of compound treated samples were normalized with phagocytosis of positive control (B6H12) using the formula: % normalized phagocytosis=[(corrected % phagocytosis of compound)/(corrected phagocytosis of B6H12)*100]

Compound | activation at 10 µM [%]
COC(=O)CC[C@H](N)c1noc(C(CCCNC(=N)N)NC(=O)N2CCCC2C(=O)OC)n1 (stereo partly drawn) [Compound 39] | 23
N[C@@H](CCC(=O)O)c1noc(CNC(=O)N[C@@H](Cc2cnc[nH]2)C(=O)O)n1 [Compound 22] | 33
CCC(C)[C@H](N)c1noc([C@H](CCCNC(=N)N)NC(=O)N2CCCC2C(=O)O)n1 (stereo partly drawn) [Compound 29] | 26
N=C(N)NCCC[C@H](NC(=O)N1CCCC1C(=O)O)c1nc([C@@H](N)Cc2c[nH]c3ccccc23)no1 (stereo partly drawn) [Compound 30] | 23
N=C(N)NCCC[C@H](NC(=O)N1CCCC1C(=O)O)c1nc([C@@H](N)CC(=O)O)no1 (stereo partly drawn) [Compound 23] | 60
N=C(N)NCCC[C@H](NC(=O)N[C@@H](CCC(=O)O)c1nc([C@@H]2CCCN2)no1)C(=O)O [Compound 8] | 40
N=C(N)NCCC[C@H](NC(=O)N1CCCC1C(=O)O)c1nc([C@@H](N)CCC(=O)O)no1 (stereo partly drawn) [Compound 3] | 73
N=C(N)NCCC[C@H](N)c1noc([C@H](CCC(=O)O)NC(=O)N[C@@H](Cc2ccccc2)C(=O)O)n1 [Compound 7, (S)-4-(3-((S)-1-amino-4-guanidinobutyl)-1,2,4-oxadiazol-5-yl)-4-(3-((S)-1-carboxy-2-phenylethyl)ureido)butanoic acid] | 38
N=C(N)NCCC[C@H](NC(=O)N[C@@H](CC(=O)O)C(=O)O)c1nc([C@@H](N)CCC(=O)O)no1 [Compound 47] | 18
N[C@@H](CCC(=O)O)c1noc(CNC(=O)N2CCCC2C(=O)O)n1 (stereo partly drawn) [Compound 17] | 33
N=C(N)NCCC[C@H](NC(=O)N[C@@H](Cc1ccccc1)C(=O)O)c1nc([C@@H](N)CCC(N)=O)no1 [Compound 10] | 28
N=C(N)NCCC[C@H](NC(=O)N[C@@H](CCC(N)=O)C(=O)O)c1nc([C@@H](N)CCC(N)=O)no1 [Compound 12] | 20
N=C(N)NCCC[C@H](NC(=O)NCC(=O)O)c1nc([C@@H](N)CCC(=O)O)no1 [Compound 48] | 29
NCCCC[C@H](NC(=O)NCc1nc([C@@H](N)CCC(N)=O)no1)C(=O)O [Compound 41] | 31
N[C@@H](Cc1ccccc1)c1noc(CNC(=O)N2CCCC2C(=O)O)n1 (stereo partly drawn) [Compound 16] | 27
NCCCC[C@H](NC(=O)N[C@@H](CCC(N)=O)c1nc([C@@H](N)CC(N)=O)no1)C(=O)O [Compound 43] | 43
N=C(N)NCCC[C@H](NC(=O)N1CCCC1C(=O)O)c1nc([C@@H](N)CCC(N)=O)no1 (stereo partly drawn) [Compound 5] | 56

Compound | activation at 10 µM [%]
N=C(N)NCCC[C@H](NC(=O)N[C@@H](Cc1c[nH]c2ccccc12)C(=O)O)c1nc([C@@H](N)CCC(=O)O)no1 [Compound 46] | 30
COC(=O)C1CCCN1C(=O)NC(CCCNC(=N)N)c1nc([C@@H](N)CCC(=O)O)no1 (stereo partly drawn) [Compound 40] | 27
N=C(N)NCCC[C@H](NC(=O)N[C@@H](CCC(=O)O)C(=O)O)c1nc([C@@H](N)CCC(=O)O)no1 [Compound 51] | 24
N[C@@H](CCC(=O)O)c1noc([C@H](CO)NC(=O)N2CCCC2C(=O)O)n1 (stereo partly drawn) [Compound 35] | 35
N[C@@H](CCC(=O)O)c1noc([C@H](Cc2ccccc2)NC(=O)N2CCC[C@H]2C(=O)O)n1 [Compound 33] | 31
N=C(N)NCCC[C@H](NC(=O)N1CCCC1C(=O)O)c1nc(CN)no1 (stereo partly drawn) [Compound 31] | 58
NCCCC[C@H](N)c1noc([C@H](CCC(=O)O)NC(=O)NCC(=O)O)n1 [Compound 15] | 62
NCCCC[C@H](N)c1noc([C@H](CCC(N)=O)NC(=O)N2CCC[C@H]2C(=O)O)n1 [Compound 1, (((S)-4-amino-1-(3-((S)-1,5-diaminopentyl)-1,2,4-oxadiazol-5-yl)-4-oxobutyl)carbamoyl)-L-proline] | 45
N=C(N)NCCC[C@H](N)c1noc([C@H](CCC(=O)O)NC(=O)N2CCCC2C(=O)O)n1 (stereo partly drawn) [Compound 2] | 37
CC(C)C[C@H](NC(=O)N[C@@H](CCCNC(=N)N)c1nc([C@@H](N)CCC(=O)O)no1)C(=O)O [Compound 44] | 20
NCc1noc([C@H](Cc2cnc[nH]2)NC(=O)N[C@@H](Cc2ccccc2)C(=O)O)n1 [Compound 14] | 26
NC(=O)CC[C@H](N)c1noc([C@H](CCC(=O)O)NC(=O)N2CCCC2C(=O)O)n1 (stereo partly drawn) [Compound 21] | 13
N[C@@H](Cc1cnc[nH]1)c1noc([C@H](Cc2ccccc2)NC(=O)N2CCCC2C(=O)O)n1 (stereo partly drawn) [Compound 19] | 52
N[C@@H](CCC(=O)O)c1noc([C@H](CCC(=O)O)NC(=O)N2CCCC2C(=O)O)n1 (stereo partly drawn) [Compound 32] | 46
NC(=O)CC[C@H](N)c1noc(CNC(=O)N[C@@H](CCC(=O)O)C(=O)O)n1 [Compound 50] | 26
NCCCC[C@H](N)c1noc([C@H](CCC(=O)O)NC(=O)N[C@@H](Cc2cnc[nH]2)C(=O)O)n1 [Compound 13] | 29
CCC(C)[C@H](NC(=O)N[C@@H](CCCNC(=N)N)c1nc([C@@H](N)CCC(=O)O)no1)C(=O)O (stereo partly drawn) [Compound 37] | 17
